Laboratory results: patent US8541617B2, “Cycloalkylphenyl substituted cyclic ketoenols” (Bayer Cropscience AG, priority 2006, dated 2013)

Experiments:
Summer wheat = test: Example C: Herbicidal post-emergence action, use of safeners (crop plant damage); type: in vivo; settings: for Summer wheat observed (%): no safener; for Summer wheat observed (%), 10 days after application / Summer wheat observed (%), 28 days after application: greenhouse container trial;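 for Summer wheat observed (%), 10 days after application: 100% means plants died and 0% means like untreated controls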;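 for Summer wheat observed (%), 28 days after application: 100% means plants died and 0% means like untreated controls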
Protocol: (§1) Herbicidal Post-Emergence Action
(§2) Seeds of monocotylos and dicotylos weed and crop plants are placed into sandy lawn in wood fibre pots or in plastic pots, covered with soil and cultivated in a greenhouse, during the vegetation period also outdoors outside of the greenhouse, under good growth conditions. Two to three weeks after sowing, the test plants are treated at the one- to three-leaf stage. The test compounds, formulated as wettable powders (WP) or liquid (EC), are, in the various dosages at a water application rate of 300 l/ha (converted), with wetting agent (0.2 to 0.3%) added, sprayed onto the plants and the surface of the soil. […]
(§3) If it is additionally to be tested as to whether safeners can improve the plant compatibility of test substances in the case of crop plants, the following options are used for applying the safener: • seeds of the crop plants are, before sowing, dressed with safener substance (the amount of safener stated in percent, based on the weight of the seed) • before the application of the test substances, the crop plants are sprayed with the safener at a certain application rate per hectare (usually 1 day before the application of the test substances) • the safener is applied together with the test substance as a tank mix (the amount of safener is stated in g/ha or as a ratio, based on the herbicide).
(§4) By comparing the effect of test substances on crop plants without or with safener treatment, it is possible to assess the effect of the safener substance.
(§5) Container trials in the greenhouse, treatment with safener 1 day prior to herbicide application

Summer barley = test: as above; type: in vivo; settings: for Summer barley observed (%): no safener; for Summer barley observed (%), 10 days after application / Summer barley observed (%), 28 days after application: greenhouse container trial;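 for Summer barley observed (%), 10 days after application: 100% means plants died and 0% means like untreated controls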;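 for Summer barley observed (%), 28 days after application: 100% means plants died and 0% means like untreated controls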
Protocol: as §1, §2, §3, §4, §5

[1] = logP determination by HPLC on a reverse-phase column (C 18), EEC Directive 79/831 Annex V.A8; type: physicochemical; settings: HPLC reverse-phase C 18, 43° C., acidic range (pH 2.3), 0.1% aqueous phosphoric acid/acetonitrile
Protocol: The logP values given in the table were determined in accordance with EEC Directive 79/831 Annex V.A8 by HPLC (High Performance Liquid Chromatography) on a reverse-phase column (C 18). Temperature: 43° C.
Mobile phases for the determination in the acidic range (pH 2.3): 0.1% aqueous phosphoric acid, acetonitrile; linear gradient from 10% acetonitrile to 90% acetonitrile.
Calibration was carried out using unbranched alkan-2-ones (having 3 to 16 carbon atoms) with known logP values (determination of the logP values by retention times using linear interpolation between two successive alkanones).

[2] = tested on: cotton aphid (Aphis gossypii); test: Example N: Aphis gossypii test, with ammonium/phosphonium salts and penetrants; type: in vivo; settings: 20 ppm
Protocol: Solvent: 7 parts by weight of dimethylformamide
Emulsifier: 2 parts by weight of alkylaryl polyglycol ether
To produce a suitable preparation of active compound, 1 part by weight of active compound is mixed with the stated amounts of solvent and emulsifier and the concentrate is diluted with emulsifier-containing water to the desired concentration. For the application with penetrants (rapeseed oil methyl ester 500 EW), ammonium or phosphonium salts or ammonium salts and penetrants (rapeseed oil methyl ester 500 EW), these are in each case added in a concentration of 1000 ppm to the spray liquor.
Cotton plants (Gossypium hirsutum) which are heavily infested by the cotton aphid (Aphis gossypii) are treated by being sprayed to run off point with the preparation of active compound at the desired concentration.
After the desired period of time, the kill in % is determined. 100% means that all aphids have been killed; 0% means that none of the aphids have been killed.
In this test, for example, the following compounds of the Preparation Examples show good efficacy: see table

[3] = 10 days after application, 12.5 g of a.i./ha
[4] = 10 days after application, 25 g of a.i./ha
[5] = 28 days after application, 12.5 g of a.i./ha
[6] = 28 days after application, 25 g of a.i./ha
[7] = 28 days after application, 50 g of a.i./ha
[8] = 10 days after application, 50 g of a.i./ha
[9] = 10 days after application, 100 g of a.i./ha
[10] = 28 days after application, 100 g of a.i./ha

In the case of `CCOC(=O)OC1=C(c2c(C)cc(C)cc2C2CC2)C(=O)NC12CCC(OC)CC2` (single isomer, unassigned) [Example I-1-c-7], the “Summer wheat observed (%)” value (Summer wheat; [3]) is reported as 20%, the “Summer wheat observed (%)” value (Summer wheat; [4]) is reported as 60% and the “Summer wheat observed (%)” value (Summer wheat; [5]) is reported as 10%. The “Summer wheat observed (%)” value (Summer wheat; [6]) was 20%, the “Summer wheat observed (%)” value (Summer wheat; [7]) was 80% and the “Summer barley observed (%)” value (Summer barley; [3]) was 10%. For the same compound, the “Summer barley observed (%)” value (Summer barley; [4]) was 40%, the “Summer barley observed (%)” value (Summer barley; [8]) was 60% and the “Summer barley observed (%)” value (Summer barley; [9]) was 90%. The “Summer barley observed (%)” value (Summer barley; [7]) was 50% and the “Summer barley observed (%)” value (Summer barley; [10]) was 95%.

With `COC1CCC2(CC1)OC(=O)C(c1c(C)cc(C3CC3)cc1C)=C2O` (single isomer, unassigned) [Example I-2-a-3] the logP [1] was 2.64.

For `COC1CCC2(CC1)OC(=O)C(c1c(C)cc(C3CC3)cc1C)=C2O` (single isomer, unassigned) [Example I-2-a-4], the logP [1] was 2.88.

In the case of `CCc1cc(C)cc(C2CC2)c1C1=C(O)C(C)(C)NC1=O` [Example I-1-a-5], the “Summer wheat observed (%), 10 days after application” value (shortened to “Summer wheat observed (%), 10 days”) (Summer wheat; 6.25 g of a.i./ha) is reported as 50%, the “Summer wheat observed (%), 28 days after application” value (“Summer wheat observed (%), 28 days” below) (Summer wheat; 6.25 g of a.i./ha) is reported as 10% and the “Summer wheat observed (%), 10 days” value (Summer wheat; 12.5 g of a.i./ha) is reported as 60%. The “Summer wheat observed (%), 28 days” value (Summer wheat; 12.5 g of a.i./ha) was 40%, the “Summer wheat observed (%), 10 days” value (Summer wheat; 25 g of a.i./ha) was 70% and the “Summer wheat observed (%), 28 days” value (Summer wheat; 25 g of a.i./ha) was 60%. The “Summer wheat observed (%), 10 days” value (Summer wheat; 50 g of a.i./ha) was 70%, the “Summer wheat observed (%), 28 days” value (Summer wheat; 50 g of a.i./ha) was 75% and the “Summer barley observed (%), 10 days after application” value (shortened to “Summer barley observed (%), 10 days”) (Summer barley; 12.5 g of a.i./ha) was 50%. The “Summer barley observed (%), 28 days after application” value (“Summer barley observed (%), 28 days” for short) (Summer barley; 12.5 g of a.i./ha) was 15%, the “Summer barley observed (%), 10 days” value (Summer barley; 25 g of a.i./ha) was 70% and the “Summer barley observed (%), 28 days” value (Summer barley; 25 g of a.i./ha) was 25%. For the same compound, the “Summer barley observed (%), 10 days” value (Summer barley; 50 g of a.i./ha) was 80% and the “Summer barley observed (%), 28 days” value (Summer barley; 50 g of a.i./ha) was 40%.

In the case of `COC1CCC2(CC1)NC(=O)C(c1c(C)cc(C)cc1C1CC1)=C2O` (centres unmarked) [Example I-1-a-7], the “Summer wheat observed (%)” value (Summer wheat; [5]) is reported as 30%, the “Summer wheat observed (%)” value (Summer wheat; [6]) is reported as 60% and the “Summer wheat observed (%)” value (Summer wheat; [7]) is reported as 70%. The “Summer wheat observed (%)” value (Summer wheat; [10]) was 80%, the “Summer barley observed (%)” value (Summer barley; [3]) was 10% and the “Summer barley observed (%)” value (Summer barley; [4]) was 50%. For the same compound, the “Summer barley observed (%)” value (Summer barley; [8]) was 60%, the “Kill (%) after 6 d +AS + RME in each case 1000 ppm” value ([2]; + AS + RME in each case 1000 ppm) was 99% and the “Kill (%) after 6 d +AS 1000 ppm” value ([2]; + ammonium sulphate 1000 ppm) was 65%. For the same compound, the “Kill (%) after 6 d +RME 1000 ppm” value ([2]; + rapeseed oil methyl ester 1000 ppm) was 75% and the “Kill (%) after 6 d” value ([2]; no additive) was 55%.

For `Cc1cc(C)c(C2=C(O)C(C)(C)NC2=O)c(C2CC2)c1` [Example I-1-a-8], the “Summer wheat observed (%)” value (Summer wheat; [4]) was 25%, the “Summer wheat observed (%)” value (Summer wheat; [8]) was 30% and the “Summer wheat observed (%)” value (Summer wheat; [9]) was 30%.

In the case of `CCOC1CCCC2(CC1)NC(=O)C(c1c(C)cc(C)cc1C1CC1)=C2O` (centres unmarked) [Example I-1-a-9], the “Summer wheat observed (%)” value (Summer wheat; [3]) is reported as 60%, the “Summer wheat observed (%)” value (Summer wheat; [4]) is reported as 65% and the “Summer wheat observed (%)” value (Summer wheat; [6]) is reported as 50%.

In the case of `CCCCOC1CCCC2(C1)NC(=O)C(c1c(Cl)cc(C)cc1C1CC1)=C2O` (centres unmarked) [Example I-1-a-12], the “Summer wheat observed (%), 10 days” value (Summer wheat; 6.25 g of a.i./ha) is reported as 10%, the “Summer wheat observed (%), 10 days” value (Summer wheat; 12.5 g of a.i./ha) is reported as 40% and the “Summer wheat observed (%), 10 days” value (Summer wheat; 25 g of a.i./ha) is reported as 50%. The “Summer wheat observed (%)” value (Summer wheat; 10 days after application, 6.25 g of a.i./ha) was 30%, the “Summer wheat observed (%)” value (Summer wheat; [3]) was 50% and the “Summer wheat observed (%)” value (Summer wheat; [4]) was 60%. For the same compound, the “Summer wheat observed (%)” value (Summer wheat; [8]) was 60%, the “Summer wheat observed (%)” value (Summer wheat; 28 days after application, 6.25 g of a.i./ha) was 5% and the “Summer wheat observed (%)” value (Summer wheat; [5]) was 25%. For the same compound, the “Summer wheat observed (%)” value (Summer wheat; [6]) was 65% and the “Summer wheat observed (%)” value (Summer wheat; [7]) was 65%.

With `CCOC1CCCC2(C1)NC(=O)C(c1c(Cl)cc(C)cc1C1CC1)=C2O` (centres unmarked) [Example I-1-a-14] the “Summer wheat observed (%)” value (Summer wheat; [5]) was 20%, the “Summer wheat observed (%)” value (Summer wheat; [6]) was 50% and the “Summer wheat observed (%)” value (Summer wheat; [7]) was 75%. For the same compound, the “Summer wheat observed (%)” value (Summer wheat; [10]) was 85%, the “Summer barley observed (%)” value (Summer barley; [5]) was 20% and the “Summer barley observed (%)” value (Summer barley; [6]) was 60%. The “Summer barley observed (%)” value (Summer barley; [7]) was 70%.
